Our source for the EC50 values is article PMC10837065 (Current Research in Insect Science, 2024).

One assay concerns PficOrco/PficOR8. Put plainly: Fluo4-AM calcium fluorescence, FlexStation-3, HEK293 cells. Format: cell-based, Planococcus ficus. The following applies: agonist; doxycycline-induced cells; 0.5 % DMSO.
The subject of the next assay is PficOrco/PficOR6. The description is as above. Conditions: agonist; doxycycline-induced cells; 0.5 % DMSO. Format: cell-based, Planococcus ficus.

The structures appear in SMILES notation.

With `CCCC(=O)OCC(CC=C(C)C)=C(C)C` [2-isopropyliden-5-methyl-4-hexen-1-yl butyrate], in the assay with PficOrco/PficOR8, the concentration for a half-maximal effect (EC50) was 8.6 µM.
Regarding `C=C(C)C(CC=C(C)C)COC(=O)C=C(C)C` (stereo not drawn) [lavandulyl senecioate], the EC50 in the assay on PficOrco/PficOR8 turned out to be 52.6 µM; with PficOrco/PficOR6, 4.6 µM.
